Key:
[1] = organism: Mus musculus; experiment: Reduction in serum uric acid level in acute hyperuricemia state Kunming mouse model assessed as SUA level; format: functional
[2] = biological target: T1, Solute carrier family 22 member 12 (Homo sapiens, UniProt Q96S37); experiment: Inhibition of human URAT1 expressed in HEK293T cells using 14C- uric acid assessed as uric acid absorption by measuring intracellular liquid radiation value by liquid scintillation counting analysis; format: cell-based
T1 sequence (Q96S37 whole entry): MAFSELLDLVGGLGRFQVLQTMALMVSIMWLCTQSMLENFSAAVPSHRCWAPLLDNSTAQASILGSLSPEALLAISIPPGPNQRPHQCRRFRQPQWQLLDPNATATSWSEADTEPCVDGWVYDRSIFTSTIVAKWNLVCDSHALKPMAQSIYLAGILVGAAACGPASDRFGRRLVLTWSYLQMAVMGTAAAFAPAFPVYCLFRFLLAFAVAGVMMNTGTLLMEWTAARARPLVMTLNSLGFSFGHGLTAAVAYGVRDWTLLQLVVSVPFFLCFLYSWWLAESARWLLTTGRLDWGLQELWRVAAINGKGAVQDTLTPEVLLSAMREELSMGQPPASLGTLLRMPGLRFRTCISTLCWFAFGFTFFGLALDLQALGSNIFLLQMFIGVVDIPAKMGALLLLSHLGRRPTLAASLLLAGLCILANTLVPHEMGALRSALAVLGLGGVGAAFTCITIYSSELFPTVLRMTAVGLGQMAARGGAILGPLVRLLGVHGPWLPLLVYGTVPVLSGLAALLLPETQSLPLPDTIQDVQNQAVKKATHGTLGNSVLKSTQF

[3] = biological target: T2, Solute carrier family 2, facilitated glucose transporter member 9 (Mus musculus, UniProt Q3T9X0); experiment: Inhibition of mouse EGFP-tagged GLUT9 expressed in HEK293T cells assessed as inhibition rate by measuring relative current by patch clamp electrophysiological analysis relative to control; format: cell-based
T2 sequence (Q3T9X0 whole entry): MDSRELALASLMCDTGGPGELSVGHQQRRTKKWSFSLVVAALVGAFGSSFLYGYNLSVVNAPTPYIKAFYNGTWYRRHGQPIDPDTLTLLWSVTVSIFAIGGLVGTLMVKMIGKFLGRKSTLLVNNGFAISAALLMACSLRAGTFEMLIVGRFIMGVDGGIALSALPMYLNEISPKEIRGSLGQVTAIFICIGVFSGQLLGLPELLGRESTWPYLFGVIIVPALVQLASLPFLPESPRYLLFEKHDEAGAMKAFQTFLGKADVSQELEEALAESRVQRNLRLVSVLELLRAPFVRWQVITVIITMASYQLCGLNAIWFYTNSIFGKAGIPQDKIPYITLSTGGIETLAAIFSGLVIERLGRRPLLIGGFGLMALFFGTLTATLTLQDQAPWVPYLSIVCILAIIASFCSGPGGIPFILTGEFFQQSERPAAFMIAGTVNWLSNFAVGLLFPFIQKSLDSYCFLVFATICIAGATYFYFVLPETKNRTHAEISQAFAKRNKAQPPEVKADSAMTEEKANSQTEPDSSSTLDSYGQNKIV

[4] = tested on: Mus musculus; experiment: Reduction in serum uric acid level in acute hyperuricemia state Kunming mouse model assessed as SUA level at 0.5 mg/kg, po (reference value: 1037 +/- 106.59 uM); format: functional
[5] = tested on: Mus musculus; experiment: Reduction in serum uric acid level in acute hyperuricemia state Kunming mouse model assessed as SUA level at 0.25 mg/kg, po (reference value: 1037 +/- 106.59 uM); format: functional
[6] = tested on: Mus musculus; experiment: Reduction in serum uric acid level in acute hyperuricemia state Kunming mouse model assessed as SUA level by measuring decrease ratio at 0.25 mg/kg, po relative to control; format: functional; parameters: scale not given: the % may be the effect or the level left
[7] = tested on: Rattus norvegicus; experiment: Reduction in serum uric acid level in po dosed acute hyperuricemia state Sprague-Dawley rat model assessed as SUA level (reference value: 955.20 +/- 85.56 uM); format: functional
[8] = organism: Mus musculus; experiment: Reduction in serum uric acid level in chronic hyperuricemia state Kunming mouse model assessed as SUA level by measuring decrease ratio relative to control; format: functional; parameters: scale not given: the % may be the effect or the level left
[9] = biological target: T3, Cytochrome P450 1A2 (Homo sapiens, UniProt P05177); experiment: Inhibition of CYP1A2 in human liver microsomes measured after 40 mins incubation by LC-MS/MS analysis; format: ADME, Microsome
T3 sequence (P05177 whole entry): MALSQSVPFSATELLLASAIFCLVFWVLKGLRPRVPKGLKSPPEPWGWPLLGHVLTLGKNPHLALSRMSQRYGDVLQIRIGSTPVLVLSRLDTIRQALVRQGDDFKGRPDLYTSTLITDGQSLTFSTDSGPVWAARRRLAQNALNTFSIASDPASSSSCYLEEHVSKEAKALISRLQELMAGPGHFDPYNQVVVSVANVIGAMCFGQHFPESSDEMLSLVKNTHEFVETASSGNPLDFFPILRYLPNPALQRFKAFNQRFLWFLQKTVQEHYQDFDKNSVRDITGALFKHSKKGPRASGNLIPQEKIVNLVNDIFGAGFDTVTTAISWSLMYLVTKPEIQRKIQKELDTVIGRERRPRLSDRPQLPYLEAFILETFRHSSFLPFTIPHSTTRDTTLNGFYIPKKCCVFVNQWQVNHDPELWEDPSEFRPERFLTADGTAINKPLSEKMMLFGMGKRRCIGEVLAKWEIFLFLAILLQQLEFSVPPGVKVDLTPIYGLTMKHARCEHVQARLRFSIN

[10] = biological target: Cytochrome P450 2C19 (Homo sapiens, UniProt P33261); experiment: Inhibition of CYP2C19 in human liver microsomes measured after 40 mins incubation by LC-MS/MS analysis; format: ADME, Microsome
Chain of Cytochrome P450 2C19 (P33261 whole entry): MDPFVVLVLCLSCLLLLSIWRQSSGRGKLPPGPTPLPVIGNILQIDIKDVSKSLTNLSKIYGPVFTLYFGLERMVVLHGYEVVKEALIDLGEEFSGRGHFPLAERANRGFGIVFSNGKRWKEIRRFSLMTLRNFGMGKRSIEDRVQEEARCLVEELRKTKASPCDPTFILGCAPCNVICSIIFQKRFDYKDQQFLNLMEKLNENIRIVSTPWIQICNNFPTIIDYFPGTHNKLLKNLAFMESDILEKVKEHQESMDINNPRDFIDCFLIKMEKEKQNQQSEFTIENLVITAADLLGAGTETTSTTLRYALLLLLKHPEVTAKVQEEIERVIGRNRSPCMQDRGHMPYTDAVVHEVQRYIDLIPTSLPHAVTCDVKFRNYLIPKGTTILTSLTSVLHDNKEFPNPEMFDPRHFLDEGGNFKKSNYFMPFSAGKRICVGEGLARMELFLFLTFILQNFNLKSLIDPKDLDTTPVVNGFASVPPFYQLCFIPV

[11] = Tmax in Sprague-Dawley rat at 2 mg/kg, po measured upto 24 hrs by LC-MS/MS-AR analysis; format: ADME, organism-based; conditions: in vivo
[12] = MRT (0 to infinity) in Sprague-Dawley rat at 2 mg/kg, iv measured upto 24 hrs by LC-MS/MS-AR analysis; format: ADME, organism-based; conditions: in vivo
[13] = Cmax in Sprague-Dawley rat at 2 mg/kg, iv measured upto 24 hrs by LC-MS/MS-AR analysis; format: ADME, organism-based; conditions: in vivo
[14] = Acute toxicity in Kunming mouse assessed as anorexia at 250 to 1000 mg/kg, po administered as single dose monitored for 7 days; format: organism-based; conditions: in vivo, 168 h, dose 250-1000 mg/kg, time 7 day
[15] = Acute toxicity in Kunming mouse assessed as change in body weight at 250 to 1000 mg/kg, po administered as single dose monitored for 7 days; format: organism-based; conditions: in vivo, 168 h, dose 250-1000 mg/kg, time 7 day
[16] = Toxicity in Kunming female mouse assessed as pathological changes at 100 mg/kg, po administered every other day for 14 days by H and E staining based assay; format: organism-based; conditions: in vivo, 336 h, time 14 day

`O=C(O)CCCSc1nc(Nc2ccc(C3CC3)c3ccccc23)c2sccc2n1` showed an Activity [1] of 191.6 µM, an IC50 [2] of 2.01 µM and an IC50 [3] of 18.2 µM. It also gave an Activity [4] of 418.6 µM, an Activity [5] of 945 µM and an Activity [6] of 9.89%. For the same compound, the Activity [7] was 190.8 µM, the Activity [8] was 76.33% and the IC50 [9] was 9.48 µM. For the same compound, the IC50 [10] was 5.93 µM, the Tmax [11] was 15 min and the MRT inf [12] was 30 min. The Cmax [13] was 6.59 µg/mL, the Activity [14] was “Non-Toxic” and the Activity [15] was “Toxic”. For the same compound, the Activity [16] was “Non-Toxic”.

— ChEMBL document CHEMBL5528083, “Discovery of a Novel Thienopyrimidine Compound as a Urate Transporter 1 and Glucose Transporter 9 Dual Inhibitor with Improved Efficacy and Favorable Druggability” (J Med Chem, 2024)
